In patent publication US7081485B2, “Non-volatile dental compositions containing multifunctional acrylate compounds and lacking an oxygen-inhibited layer” (Bisco, Inc., priority 2002, dated 2006):

assay: Initiator absorptivity, 400–500 nm in acetonitrile; format: physicochemical; conditions: normalized by mass
Experimental: The absorptivity is the absorbance in the range of 400–500 nm in acetonitrile normalized by mass. The higher the value, the higher the absorption in the visible light range. The first three initiators undergo unimolecular bond cleavage upon irradiation. The last three initiators require a co-initiator, such as an amine, to undergo a bimolecular reaction. The initiators (and EDMAB amine if required) were added to the resin. Samples were coated on a white mixing pad, evaporated for greater than 60 seconds, and irradiated at 500 mW/cm^2 using a Bisco VIP light curing system. Samples were irradiated for 5 seconds, 10 seconds, 30 seconds, and 10 seconds in the absence of air. The “no air” cure was performed between two Mylar slips, each 0.25 mm thick. The actual concentration of initiator in the resin was double that shown in the table due to the evaporation of the acetone.

| SMILES | Absorbance × 10^−3 |
| --- | --- |
| CC12CCC(C(=O)C1=O)C2(C)C (stereo not drawn) [CQ, camphorquinone] | 11 × 10^−3 |
| CCOP(=O)(C(=O)c1c(C)cc(C)cc1C)c1ccccc1 (stereo not drawn) [TPOL, ethyl-2,4,6-trimethylbenzoyl-phenylphosphinate] | 4 × 10^−3 |
| CCCCOc1ccc2cc3cc(I)c(=O)c(I)c-3oc2c1 [HNu, 5,7-diiodo-3-butoxy-6-fluorone] | 2960 × 10^−3 |
| Cc1cc(C)c(C(=O)P(=O)(c2ccccc2)c2ccccc2)c(C)c1 [TPO, 2,4,6-trimethylbenzoyl-diphenylphosphinate] | 6 × 10^−3 |
| O=C1C(=O)c2ccccc2-c2ccccc21 [PAQ, phenanthrenequinone] | 466 × 10^−3 |
| Cc1cc(C)c(C(=O)P(=O)(C(=O)c2c(C)cc(C)cc2C)c2ccccc2)c(C)c1 [Composition 819, bis(2,4,6-trimethylbenzoyl)-phenylphosphineoxide] | 23 × 10^−3 |
